Experimental data reported in ChEMBL document CHEMBL4725319, “Discovery of attenuation effect of orexin 1 receptor to aversion of nalfurafine: Synthesis and evaluation of D-nor-nalfurafine derivatives and analyses of the three active conformations of nalfurafine” (Bioorg Med Chem Lett, 2020).
The source made the active and inactive calls. The rule behind the calls is not given here.

Tests used:
Mus musculus [1] = assay: Analgesic activity in OX1R knock out mouse assessed as increase in wheel running activity at 40 ug/kg; format: functional, organism-based; conditions: dose 40.0 µg/kg
Mus musculus [2] = assay: Analgesic activity in OX1R knock out mouse assessed as increase in wheel running activity at 4 to 10 ug/kg; format: functional, organism-based; conditions: dose microg/kg 4-10
[3] = Toxicity in dual OX1/2R knock out mouse assessed as increase in conditioned place aversion at 10 to 40 microg/kg, sc; conditions: in vivo, dose 10-40 µg/kg
[4] = Toxicity in mouse assessed as conditioned place aversion at 10 to 40 microg/kg, sc; conditions: in vivo, dose 10-40 µg/kg
[5] = Dissociation constant, pKa of compound; format: physicochemical

SMILES: CN(C(=O)/C=C/c1ccoc1)[C@@H]1CC[C@@]2(O)[C@H]3Cc4ccc(O)c5c4[C@@]2(CCN3CC2CC2)[C@H]1O5 [NALFURAFINE]
- Activity (Mus musculus [1]): Active
- Activity (Mus musculus [2]): inactive
- Activity [3]: Toxic
- Activity [4]: Non-Toxic
- pKa [5]: 9.4
